Reference: ChEMBL document CHEMBL1154552, “Two new prenylated 3-benzoxepin derivatives as cyclooxygenase inhibitors from Perilla frutescens var. acuta” (J Nat Prod, 2000)

Tests used:
[1] = molecular target: T1, Prostaglandin G/H synthase 1 (Ovis aries) (UniProt P05979); details: Seminal vesicle, Microsome, 5 uM
T1 sequence (whole entry): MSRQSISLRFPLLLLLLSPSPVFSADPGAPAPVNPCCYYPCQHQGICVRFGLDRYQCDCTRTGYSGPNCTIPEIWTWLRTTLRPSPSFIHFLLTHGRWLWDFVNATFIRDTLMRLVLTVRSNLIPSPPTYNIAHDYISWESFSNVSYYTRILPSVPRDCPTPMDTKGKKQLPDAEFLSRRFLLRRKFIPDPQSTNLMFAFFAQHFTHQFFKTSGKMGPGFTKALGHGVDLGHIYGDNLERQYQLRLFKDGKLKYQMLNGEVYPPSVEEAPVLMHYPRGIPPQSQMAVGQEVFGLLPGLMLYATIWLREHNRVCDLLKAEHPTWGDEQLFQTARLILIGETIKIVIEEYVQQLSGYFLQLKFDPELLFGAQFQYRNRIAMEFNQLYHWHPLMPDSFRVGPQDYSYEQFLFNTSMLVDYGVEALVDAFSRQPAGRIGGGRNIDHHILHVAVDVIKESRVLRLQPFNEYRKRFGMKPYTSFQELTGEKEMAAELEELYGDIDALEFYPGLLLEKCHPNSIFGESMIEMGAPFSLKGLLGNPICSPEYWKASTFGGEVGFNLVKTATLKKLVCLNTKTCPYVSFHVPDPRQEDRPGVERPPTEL
Description: Inhibition of COX1 in ram seminal vesicle microsomes assessed as reduction of PGE2 formation at 5 uM

[2] = molecular target: T2, Prostaglandin G/H synthase 1 (Ovis aries, UniProt P05979); experiment: Inhibition of COX1 in ram seminal vesicle microsomes assessed as reduction of PGE2 formation; parameters: species or system Microsome
T2 sequence (P05979 whole entry): T1 sequence (whole entry)

inhibition [1] [%]	IC50 [2] [µM]	SMILES
0.2		COc1ccc2c(c1)c(CC(=O)O)c(C)n2C(=O)c1ccc(Cl)cc1
	23.2	COc1cc2c(c3c1C=COC=C3)O[C@@H](C(C)(C)O)C2 [PERILLOXIN]
	30.4	COc1cc2cc(C(C)(C)O)oc2c2c1C=COC=C2
